The values below come from patent US11306361B2, “Pathology prognosis method” (CENTRE NATIONAL DE LA RECHERCHE SCIENTIFIQUE, priority 2015, dated 2022).

The subject of data set [1] is MEFs transformed with the mouse T antigen. As to the kind of experiment: Apoptosis and PARP cleavage in cell lines immortalized by the T antigen. The settings on record: FIG. 15; for induced apoptosis as a function of Cyclin D1 level: T antigen immortalized cells, wild vs Ntag/Ntag vs −/−; for cleavage of the PARP: cells with low Cyclin D1 level. The class given is cell-based. The text has this: (§1) The antibodies used are the following: anti-HA (HA.11 Clone 16B12, Eurogentec or Anti-HA EPITOPE TAG-600-401-384, Tebu-bio or Hemagglutinin (HA) Rabbit Polyclonal Antibody, Life Technologies), anti-Cyclin D1 (sc-450, Santa Cruz or MS-210-PABX (AB1), Fisher Scientific or RB-010-PABX (AB3), Fisher scientific), anti-RB total (sc-74562, Santa Cruz), anti-Phospho-RB (Ser780) (9307, Cell signaling), anti-Actin (ab6276, Abcam), anti-Tubulin (T9026, Sigma-Aldrich), anti-Ras (BD610002, BD Biosciences), anti-FLAG (F7425, Sigma-Aldrich), anti-cleaved PARP (ab32064, Abcam), anti-VASA (ab13840, Abcam), anti-Thyrosine Hydroxylase (MAB318, Merck Millipore). The secondary antibodies used are coupled with peroxidase (signaling), and the detection of the complexes is done using the enhanced chemiluminescence detection kit (Millipore).
(§2) Cell death is induced by exposure to actinomycin D A9415, Sigma, for 6 h, 5-Fluoro uracil (Fluorouracil Winthrop, Sanofi-Aventis) for 24 h, or ethanol (20821.330, VWR) for 6 h and inhibited by exposure to Q-VD-Oph (SML0063, Sigma).
(§3) The cells are washed twice in PBS 1×, unstuck with trypsin and reacted in a marking buffer (10 mM of Hepes pH=7.4, sodium chloride 150 mM, KCl 5 mM, MgCl2 1 mM, CaCl2 1.8 mM). Then the cells were marked with […]-fluorescein isothiocyanate (BD Biosciences) according to the manufacturer's instructions in 0.5 μg/mL of propidium iodide (PI; Sigma-Aldrich P-4170). After 15 min. of incubation in the dark, the cells are analyzed by flux cytometry. The living cells are Annexin V and PI double negatives and the apoptotic cells are positive for Annexin V and negative for PI.

For data set [2], the system named is MEF cells transformed with RAS-G12V/DNP53 and MMTV-ErbB2 tumor cells. Briefly: Measurement of cell death (apoptosis) in transformed tumor cells. The settings on record: for apoptosis rates versus quantity of Cyclin D1: MEFs transformed with P53 negative dominant and RAS G12V, null, low or high Cyclin D1, FIG. 23. The class given is cell-based, mouse. As to the method:
as §2, §3

Data set [3] has as its system RAS or ErbB2 cancer cells. Briefly: Western blot of cleaved PARP in tumor cells. The settings on record: after treatment with 5-FU; limited by Cyclin D1; FIG. 27. It counts as cell-based, mouse.
From the text: as §1

The next data set relates to male germinal cells. Briefly: Methoxyacetic acid treatment, mouse testicles. It counts as in vivo. As to the method:
The mice were sacrificed 14 hours after treatment, for the postmortem analyses.
as §1

The test system of a further data set is substantia nigra. As to the kind of experiment: Methamphetamine model of dopaminergic neurons in mice. As to the method:
The methamphetamine was dissolved in a saline solution at 0.9% (weight/volume) sodium chloride, and injected at a rate of 10 mL/Kg. Several doses of methamphetamine (3 doses of 5 mg/kg at 3 h intervals) were injected intraperitoneally, the first dose being injected at noon. The control mice were treated with the saline solution alone. The mice were sacrificed 24 hours after treatment, for the postmortem analyses.
The mouse organs were washed with PBS 1× at 37° C. and lysed in HTRF buffer (Tris 10 mM, EDTA 1 mM, 0.05% NP-40) using a cell homogenizer. After centrifugation at 16000 g for 5 min., the samples were normalized by adjusting the total quantity of DNA (nanodrop, Thermo Scientific) at 500 ng/mL.

The next data set has as its system dopaminergic neurons. As to the kind of experiment: 6-OHDA lesions, survival of mice. The class given is in vivo, mouse. Conditions: FIG. 9. As to the method: The mice were anesthetized with a mixture of ketamine (Imalgene 500, 50 mg/mL, Merial), 0.9% saline solution (weight/vol) and xylazine (Rompun 2%, […], Bayer) (2:2:1, i.p., 0.1 mL/30 g) and mounted on a stereotaxic apparatus. The 6-OHDA-HCl (Sigma) was dissolved in 0.02% ascorbic acid in a saline solution at a concentration of 3 μg of 6-OHDA/μL. Each mouse received two unilateral injections of 6-OHDA (2 μL/injection) in the right dorsal striatum, according to the following coordinates (in mm): anteroposterior +1, mediolateral −2.1, dorsal ventral −3.1 and anteroposterior +0.3, mediolateral −2.3, and dorsal ventral −3.1. The animals are then released and received a daily injection of glucose solution (50 mg/mL, subcutaneous).

[4] abbreviates: mice expressing N-terminal tagged Cyclin D1 relative to wild mice, intraperitoneal injection.

Numbered stars: 1 amine (or outer) side, 2 acyl side, 3 side chain; on linkers, the order of the positions; unused ones are H or OH. Bridge positions count the residues as written; N and C are the ends. Square brackets hold non-standard residues; d marks the D form. Peptide text beside a SMILES is read from it. I, II: the chains in the order shown. Actinocin(9to1) = Cc1c2oc3c(C)ccc(C(=O)[*:1])c3nc-2c(C(=O)[*:2])c(N)c1=O; NMeV = CN[C@H](C(=O)O)C(C)C; Sar = CNCC(=O)O

Turning to `Cc1c2oc3c(C)ccc(C(=O)N[C@@H]4C(=O)N[C@H](C(C)C)C(=O)N5CCC[C@H]5C(=O)N(C)CC(=O)N(C)[C@@H](C(C)C)C(=O)O[C@@H]4C)c3nc-2c(C(=O)N[C@@H]2C(=O)N[C@H](C(C)C)C(=O)N3CCC[C@H]3C(=O)N(C)CC(=O)N(C)[C@@H](C(C)C)C(=O)O[C@@H]2C)c(N)c1=O` [actinomycin D] (I: T[dV]P[Sar][NMeV] / II: T[dV]P[Sar][NMeV]; ester I:1-I:C, II:1-II:C; linker I:N-II:N via Actinocin(9to1)), in data set [1], the “induced apoptosis as a function of Cyclin D1 level” value is recorded as “increases with a low Cyclin D1 level” and the “cleavage of the PARP” value was “strong cleavage of the PARP”. In data set [2], the “apoptosis rates versus quantity of Cyclin D1” value is on record as “the quantity of Cyclin D1 correlates with the decrease in the apoptosis rates”.

`CC(C)[C@H](NC(=O)c1ccc2ccccc2n1)C(=O)N[C@@H](CC(=O)O)C(=O)COc1c(F)cccc1F` [Q-VD-Oph]: the “apoptosis induced by 5-FU or ethanol” value in data set [2] (RAS and ErbB2 lines, Q-VD-Oph 20 μM, FIGS. 24 and 25) is “shunts the apoptosis”.

For `O=c1[nH]cc(F)c(=O)[nH]1` [5-FU, 5-fluorouracil], the “apoptosis rates versus quantity of Cyclin D1” value in data set [2] is reported as “the quantity of Cyclin D1 correlates with the decrease in the apoptosis rates”. For the same molecule, the “levels of cleaved PARP” value in data set [3] is “increase”.

For `COCC(=O)O` [MAA, methoxyacetic acid], in the data set with male germinal cells (14 hours after intraperitoneal injection at 150 mg/kg, FIG. 13), the “Cyclin D1 in testicles (HTRF)” value was “decrease”. For the same molecule, in the data set with male germinal cells (setting [4]), the “cleaved PARP rate in testicles” value is “increase” and the “germinal cell marker (Vasa) in testicles” value is recorded as “massive loss”.

For `CN[C@@H](C)Cc1ccccc1` [methamphetamine], in the data set on substantia nigra (CCND1Ntag/Ntag mice, 24 hours after intraperitoneal injection, FIG. 8), the “quantity of Cyclin D1 in the substantia nigra (HTRF)” value is given as “decreases”. The cerebral lesions result in the data set on substantia nigra (animals expressing little Cyclin D1, intraperitoneal 5 mg/kg) is given as “increase in cerebral lesions”.

With `CCO` [ethanol], in data set [1], the “induced apoptosis as a function of Cyclin D1 level” value is reported as “increases with a low Cyclin D1 level” and the “cleavage of the PARP” value is given as “strong cleavage of the PARP”.

In the case of `NCCc1cc(O)c(O)cc1O` [6-OHDA, 6-hydroxy dopamine], the “survival of wild mice” value in the data set with dopaminergic neurons (CCND1+/+ mice, intrastriatal injection) is reported as “survive treatment”. Besides, in the data set on dopaminergic neurons (mice expressing little Cyclin D1, intrastriatal injection), the “survival of mice expressing N-terminal tagged Cyclin D1” value is reported as “die several days after”.
